Laboratory results from PubChem BioAssay AID256 (DTP/NCI, 2004).
Where “and” joins values, the source holds several entries; their conditions need not be identical. Identical values can stand only once. Toxic doses and inconclusive results are not listed.

System: CD2F1 mice, L1210 leukemia ip, survival T/C
Test: NCI In Vivo Anticancer Drug Screen. Data for tumor model L1210 Leukemia (intraperitoneal) in CD2F1 (CDF1) mice
Settings: endpoint: mean survival time, higher = longer survival
Outline: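 Transplantable tumor in mice; compound-treated vs vehicle-treated groups. Read-out = treated/control ratio of the measured endpoint.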

[1] = dose: 100.0 mg/kg/injection, schedule: Q01DX001 (ip), vehicle: saline with Tween-80
[2] = dose: 200.0 mg/kg/injection, schedule: Q01DX001 (ip), vehicle: saline with Tween-80
[3] = dose: 400.0 mg/kg/injection, schedule: Q01DX001 (ip), vehicle: saline with Tween-80
[4] = dose: 100.0 mg/kg/injection, schedule: Q01DX009 (ip), vehicle: saline with Tween-80
[5] = dose: 200.0 mg/kg/injection, schedule: Q01DX009 (ip), vehicle: saline with Tween-80
[6] = dose: 75.0 mg/kg/injection, schedule: Q01DX001 (ip), vehicle: saline

SMILES: Nc1nc2c(ncn2-c2ccc3oc4ccccc4c3c2)c(=O)[nH]1
- T/C [1]: 93 % of control and 108 % of control
- T/C (dose: 100.0 mg/kg/injection, schedule: Q04DX002 (ip), vehicle: saline with Tween-80): 101 % of control
- T/C [2]: 89 % of control and 97 % of control
- T/C (dose: 200.0 mg/kg/injection, schedule: Q04DX002 (ip), vehicle: saline with Tween-80): 97 % of control
- T/C [3]: 89 % of control and 101 % of control
- T/C (dose: 400.0 mg/kg/injection, schedule: Q04DX002 (ip), vehicle: saline with Tween-80): 108 % of control

SMILES: Cc1ccc2nc3c(nc2c1)-c1cccc2cccc-3c12
- T/C [4]: 92 % of control
- T/C [5]: 94 % of control
- T/C (dose: 400.0 mg/kg/injection, schedule: Q01DX009 (ip), vehicle: saline with Tween-80): 106 % of control

SMILES: CCCCCCCCN(CCCCCCCC)CC(O)c1ccc2c(c1)Sc1ccccc1O2 (stereo not drawn)
- T/C [6]: 93 % of control
- T/C (dose: 150.0 mg/kg/injection, schedule: Q01DX001 (ip), vehicle: saline): 90 % of control

SMILES: Cc1nc2c(c(-c3ccccc3)n1)Cc1c(ccc3ccccc13)O2
- T/C (dose: 100.0 mg/kg/injection, schedule: Q01DX001 (ip), vehicle: saline): 92 % of control
- T/C (dose: 200.0 mg/kg/injection, schedule: Q01DX001 (ip), vehicle: saline): 98 % of control
- T/C (dose: 400.0 mg/kg/injection, schedule: Q01DX001 (ip), vehicle: saline): 103 % of control

SMILES: N#CC(c1ccc([N+](=O)[O-])cc1)C(CC(=O)c1ccccc1)c1ccccc1 (stereo not drawn)
- T/C (dose: 50.0 mg/kg/injection, schedule: Q01DX009 (ip), vehicle: Klucel (hydroxypropylcellulose) (HPC)): 96 % of control
- T/C (dose: 100.0 mg/kg/injection, schedule: Q01DX009 (ip), vehicle: Klucel (hydroxypropylcellulose) (HPC)): 101 % of control
- T/C (dose: 200.0 mg/kg/injection, schedule: Q01DX009 (ip), vehicle: Klucel (hydroxypropylcellulose) (HPC)): 93 % of control

SMILES: NC(=O)c1ccc(Cl)c(Cl)c1
- T/C [4]: 103 % of control
- T/C [5]: 103 % of control

SMILES: O=c1cc(CBr)c2ccccc2[nH]1
- T/C (dose: 25.0 mg/kg/injection, schedule: Q04DX003 (ip), vehicle: saline with Tween-80): 103 % of control

SMILES: O=C(O)/C=C/C(=O)NNC(=O)/C=C/C(=O)O
- T/C (dose: 50.0 mg/kg/injection, schedule: Q01DX009 (ip), vehicle: saline with Tween-80): 94 % of control
- T/C [4]: 96 % of control
- T/C [5]: 91 % of control

SMILES: C(#Cc1ccccc1)/C=C/C(=C\c1ccccc1)c1ccccc1
- T/C [1]: 92 % of control
- T/C [2]: 89 % of control
- T/C [3]: 87 % of control

SMILES: C[P+]1(c2ccccc2)c2ccccc2Oc2ccccc21
- T/C [6]: 102 % of control

SMILES: CCOC(=O)Nc1cc(N)c2n[nH]nc2n1
- T/C (dose: 100.0 mg/kg/injection, schedule: Q01DX001 (ip), vehicle: carboxymethylcellulose (CMC)): 100 % of control
- T/C (dose: 200.0 mg/kg/injection, schedule: Q01DX001 (ip), vehicle: carboxymethylcellulose (CMC)): 98 % of control
- T/C (dose: 400.0 mg/kg/injection, schedule: Q01DX001 (ip), vehicle: carboxymethylcellulose (CMC)): 102 % of control

SMILES: C#CC[N+](CCO)(CCO)CCCCCCCCCCCCCCCCCC
- T/C (dose: 12.5 mg/kg/injection, schedule: Q04DX002 (ip), vehicle: saline with Tween-80): 101 % of control
- T/C (dose: 25.0 mg/kg/injection, schedule: Q04DX002 (ip), vehicle: saline with Tween-80): 101 % of control
- T/C (dose: 50.0 mg/kg/injection, schedule: Q04DX002 (ip), vehicle: saline with Tween-80): 101 % of control
